From ChEMBL document CHEMBL4610107, “Ene-yne Hydroquinones from a Marine-derived Strain of the Fungus Pestalotiopsis neglecta with Effects on Liver X Receptor Alpha” (J Nat Prod, 2020)

Molecular target: T1, Oxysterols receptor LXR-alpha (Homo sapiens, UniProt Q13133)
T1 sequence (Q13133 whole entry): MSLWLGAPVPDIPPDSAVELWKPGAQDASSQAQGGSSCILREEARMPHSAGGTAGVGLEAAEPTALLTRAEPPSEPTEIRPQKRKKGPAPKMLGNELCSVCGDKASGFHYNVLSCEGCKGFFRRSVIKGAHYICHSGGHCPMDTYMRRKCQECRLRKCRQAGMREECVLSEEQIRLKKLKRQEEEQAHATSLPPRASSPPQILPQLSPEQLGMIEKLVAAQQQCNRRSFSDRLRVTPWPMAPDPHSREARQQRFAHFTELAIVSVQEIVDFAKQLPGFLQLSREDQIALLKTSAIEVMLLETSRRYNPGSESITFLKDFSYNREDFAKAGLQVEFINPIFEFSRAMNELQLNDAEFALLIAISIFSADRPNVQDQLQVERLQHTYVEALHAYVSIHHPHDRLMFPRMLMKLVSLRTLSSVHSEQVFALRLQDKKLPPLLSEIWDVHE
Assay: Binding affinity to LXRalpha (unknown origin) by surface plasmon resonance assay; call rule not given here

- Kd: Not Active
SMILES: O=C(O)Cc1cccc(OCCCN(Cc2cccc(C(F)(F)F)c2Cl)CC(c2ccccc2)c2ccccc2)c1
